Source: patent publication US20240261426A1, “CONJUGATES COMPRISING PHOSPHOANTIGENS AND THEIR USE IN THERAPY” (BYONDIS B.V., priority 2021, published 2024)

Assays:
Raji cells [1] = assay: Direct compound-related cell death (CellTiter-Glo, 6 days); format: cell-based, human; conditions: 6 days incubation, positive control
Description: Metabolic activity was assessed after 6 days, using the CellTiter-Glo™ (CTG) luminescent assay kit from Promega Corporation (Madison, WI) according to the manufacturer's instructions. Cell viability was expressed as the percentage survival relative to the average mean of untreated cells or vehicle-treated cells (only growth medium or 1% DMSO) multiplied with 100. The efficacy was calculated by subtracting the bottom of the dose response curve (DRC) from 100%.

Raji cells [2] = assay: Cellular binding to Raji cells (flow cytometry); set-up: species or system human
Description: Raji cells were cultured as described in Example 23. […] After an incubation time of 30 minutes at 4° C., the cells were washed twice with ice-cold FACS buffer. […] After 30 minutes at 4° C., cells were washed twice and resuspended in 150 μL ice-cold FACS buffer. Fluorescence intensities were determined by flow cytometry using the FACSVerse or FACSymphony (BD Biosciences) and indicated as the median fluorescence intensity (MFI). Curves were fitted by nonlinear regression with a variable slope (four parameters) in GraphPad Prism version 9. EC50 values were calculated in GraphPad Prism as the concentration in μg/mL that gives a response halfway between bottom and top of the curve. Binding experiments were performed N=2 or N=3 times.

Vδ2 γδ T-cells [3] = assay: Functional assay: Vδ2 γδ T-cell activation (CD107a, IFNγ, TNFα) after co-culture of PBMCs with pretreated Raji cells; format: cell-based, human; conditions: for IFNγ production and degranulation of Vδ2 γδ T-cells compared to pretreatment with HMBPP: pre-treated Raji cells; for IFNγ production and degranulation (CD107a) of Vδ2 γδ T-cells, in words: pretreated Raji cells co-cultured with PBMCs
Description: (§1) To determine (unconjugated) phosphoantigen prodrug activity, Raji target cells were pre-incubated with XC1 and XD1, prior to co-culture with peripheral blood mononuclear cells (PBMCs) containing effector cells. Selective gammadelta T-cell activation was studied in vitro after co-culture of PBMCs with tumor cells (from the CD20-positive Burkitt's Lymphoma human tumor cell line Raji) pretreated with phosphoantigen HMBPP, phosphoantigen prodrugs XC1, XD1, or the conjugates listed in Table 1.
(§2) The CD20-positive Burkitt's Lymphoma human tumor cell line Raji (DSMZ, the German collection of Microorganisms and cell cultures GmbH (Leibniz Institute, Germany)) was used for in vitro experiments. Raji cells were cultured in complete growth medium (CGM): RPMI-1640 (Lonza, Walkersville, MD, USA) supplemented with 10% Heat-inactivated (HI) Fetal Bovine Serum (FBS) (Gibco-Life Technologies; Carlsbad, CA) and 80 U/mL Penicillin-Streptomycin solution (Lonza Group Ltd, Basel Switzerland). Raji cells were maintained at 37° C. in a humidified incubator containing 5% CO2 and sub-cultured twice a week.
For stimulation with conjugates according to the invention (ADCs), unconjugated phosphoantigen prodrugs and HMBPP, Raji cells were harvested, diluted to a concentration of 5×10^6 cells/mL and 50 μL (equivalent to 250.000 cells/well) of this cell suspension was seeded into a 96-well plate. A 2-times concentrated, 10-fold serial dilution of the prodrugs and ADC was prepared in CGM. Plated Raji cells were incubated overnight (O/N) in a humidified incubator with 5% CO2 at 37° C. with 50 μL/well of the serially-diluted compounds.
The following day, the 96 well plate with Raji cells and compounds (ADCs, unconjugated phosphoantigen prodrugs or HMBPP) was washed by adding 100 μL/well CGM, centrifugation at 300×g for 3 minutes at room temperature (RT), and removal of supernatant in order to remove excessive unbound compound.
As a source of immune cells, frozen peripheral blood mononuclear cells (PBMCs) of a healthy human donor were thawed, resuspended in CGM and placed O/N in a humidified incubator with 5% CO2 at 37° C. to let the cells recover.
The recovered PBMCs were harvested, counted and diluted to a concentration of 10×10^6 cells/mL in CGM, and 50 μL/well (equivalent to 0.5×10^6 cells/well) was added to the Raji cells. […] In all experiments, 1% Phytohemagglutinin (PHA-M, Gibco-ThermoFisher), known as an aspecific activator of immune cells, was also included in a well to serve as a positive control. Samples were incubated for 6 hours in a humidified incubator with 5% CO2 at 37° C. […]

[4] = tested on: NK cells, CD8+ T-cells, Vδ1 γδ T-cells; assay: Functional assay: activation of other immune cells after co-culture of PBMCs with pretreated Raji cells; format: cell-based, human; conditions: pretreated Raji cells co-cultured with PBMCs; PHA-M added to co-culture
Description: as §1
as §2, with “week. […]” for “week.”
The recovered PBMCs were harvested, counted and diluted to a concentration of 10×10^6 cells/mL in CGM, and 50 μL/well (equivalent to 0.5×10^6 cells/well) was added to the Raji cells. […]

Vδ2 γδ T-cells [5] = assay: Functional assay with pretreated MOLM-13 or Raji cells, different DAR (CD107a); format: cell-based, human
Description: The functional assay was performed as disclosed in Example 23, with the exception that Raji and MOLM-13 cells were pretreated for 16 or 40 hours with antibodies/ADCs/controls (Table 13). Furthermore, CD107a degranulation levels were determined only and not IFNγ expression levels. Thus, on the third experimental days, cells were directly analyzed on the BD FACSymphony A3 Cell analyzer (BD Biosciences, San Jose, CA, USA), before incubation with BD Perm/wash. […] EC50 values were calculated in GraphPad Prism as the concentration in μg/mL that gives a response half way between bottom and top of the curve. […] Raji cells were cultured as described in Example 23. The CD123-positive acute monocytic leukemia cell line MOLM-13 (DSMZ, ACC 554, the German collection of Microorganisms and cell cultures GmbH (Leibniz Institute, Germany)) was cultured in CGM and was maintained at 37° C. in a humidified incubator containing 5% CO2 and sub-cultured twice a week.

Vδ2 γδ T-cells [6] = assay: Functional assay with pretreated CD20 positive B-cell lines (CD107a read-out); format: cell-based, human; conditions: all tested B-cell lines (Raji, HG-3, MEC-1, SU-DHL-4, SU-DHL-8)
Vδ2 γδ T-cells [7] = assay: Functional assay with pretreated HER2-positive cell lines; format: cell-based, human; conditions: pretreated HCT-116 cells (low HER2)
[8] = molecular target: T1, CD20 on Raji cells (CD20-positive Burkitt's Lymphoma human tumor cell line) (human, UniProt P11836 1-297); assay: flow cytometry on CD20-positive Raji cells, APC anti-human IgG F(ab')2 secondary, MFI curve fit; experiment 1 and 2
T1 construct: whole, on cells
T1 sequence (looked up): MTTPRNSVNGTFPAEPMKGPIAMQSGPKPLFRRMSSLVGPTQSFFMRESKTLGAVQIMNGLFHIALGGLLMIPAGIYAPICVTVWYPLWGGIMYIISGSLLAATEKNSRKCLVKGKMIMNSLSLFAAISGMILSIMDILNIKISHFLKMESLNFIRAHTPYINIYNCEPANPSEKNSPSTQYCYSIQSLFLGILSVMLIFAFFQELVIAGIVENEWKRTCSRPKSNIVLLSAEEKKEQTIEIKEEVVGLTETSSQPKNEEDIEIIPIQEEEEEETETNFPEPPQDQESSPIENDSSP

[9] = molecular target: T1, CD20 on Raji cells (CD20-positive …); assay: flow cytometry on CD20-positive Raji cells, APC anti-human IgG F(ab')2 secondary, MFI curve fit; experiment 3 and 4
[10] = molecular target: T1, CD20 on Raji cells (CD20-positive …); assay: flow cytometry on CD20-positive Raji cells, APC anti-human IgG F(ab')2 secondary, MFI curve fit; experiment 5, 6 and 7

**Q.** With `COC(=O)c1cc2c([nH]1)C(=O)C=C1N(C(=O)c3cc4cc(OC)c(OC)c(OC)c4[nH]3)C[C@H]3C[C@]123` [duocarmycin type toxin] as the molecule, how does the “direct compound related cell death, in words” value (Raji cells [1]) read?
**A.** very effective

**Q.** How did the “Binding to Raji cells EC50” value (Raji cells [2]; Experiment 1 and 2) turn out when “rituximab: Anti-CD20 monoclonal antibody (MoAb) [reference compound]” was run?
**A.** 0.6 µg/mL

**Q.** What about the “Binding to Raji cells EC50” value (Raji cells [2]; Experiment 3 and 4) of the same molecule?
**A.** 1.221 µg/mL

**Q.** And the “Binding to Raji cells EC50” value (Raji cells [2]; Experiment 5, 6 and 7)?
**A.** 3.451 µg/mL

**Q.** Which results are given for `C/C(=C\CCP(=O)(OCOC(=O)C(C)(C)C)OCOC(=O)C(C)(C)C)CO` [XC1]?
**A.** IFNγ production and degranulation of Vδ2 γδ T-cells compared to pretreatment with HMBPP (Vδ2 γδ T-cells [3]): more potently induced; IFNγ production and degranulation (CD107a) of Vδ2 γδ T-cells, in words (Vδ2 γδ T-cells [3]): dose-dependently induced IFNγ production and degranulation; activation of other immune cells (NK cells, CD8+ T-cells, Vδ1 γδ T-cells), in words [4]: without inducing direct activation of other immune cells

**Q.** Which “IFNγ production and degranulation of Vδ2 γδ T-cells compared to pretreatment with HMBPP” value (Vδ2 γδ T-cells [3]) does the source give for `C/C(=C\CCP(=O)(N[C@@H](C)C(=O)OCc1ccccc1)Oc1ccccc1)CO` (stereo partly shown) [XD1] here?
**A.** more potently induced

**Q.** What about the “IFNγ production and degranulation (CD107a) of Vδ2 γδ T-cells, in words” value (Vδ2 γδ T-cells [3]) of the same molecule?
**A.** dose-dependently induced IFNγ production and degranulation

**Q.** What about the “activation of other immune cells (NK cells, CD8+ T-cells, Vδ1 γδ T-cells), in words” value [4] of the same molecule?
**A.** without inducing direct activation of other immune cells

**Q.** Which results are given for `C/C(=C\COP(=O)(O)OP(=O)(O)O)CO` [HMBPP, (E)-4-Hydroxy-3-methyl-but-2-enyl pyrophosphate]?
**A.** Vδ2 γδ T-cell activation, in words (Vδ2 γδ T-cells [5]): capable of activating Vδ2 γδ T-cells; activation (degranulation) of Vδ2 γδ T-cells, in words (Vδ2 γδ T-cells [6]): induced degranulation of Vδ2 γδ T-cells; activation of Vδ2 γδ T-cells, in words (Vδ2 γδ T-cells [7]): able to activate Vδ2 γδ T-cells

B1: rituximab (anti-CD20 monoclonal antibody) (antibody, V domains shown)
VH: QVQLQQPGAELVKPGASVKMSCKASGYTFTSYNMHWVKQTPGRGLEWIGAIYPGNGDTSYNQKFKGKATLTADKSSSTAYMQLSSLTSEDSAVYYCARSTYYGGDWYFNVWGAGTTVTVSA
VL: QIVLSQSPAILSASPGEKVTMTCRASSSVSYIHWFQQKPGSSPKPWIYATSNLASGVPVRFSGSGSGTSYSLTISRVEAEDAATYYCQQWTSNPPTFGGGTKLEIK
**Q.** With B1 as the molecule, how does the EC50 [8] read?
**A.** 0.6 µg/mL

**Q.** What about the EC50 [9] of the same molecule?
**A.** 1.22 µg/mL

**Q.** And the EC50 [10]?
**A.** 3.45 µg/mL
